Data reported in patent publication US20260234187A1, “ANTIMICROBIAL PEPTIDES” (MATERIAS S.R.L., priority 2020, published 2026).
Like-named read-outs stand apart in the source and are kept apart here. Where no end group is shown, it is not given here.

Legend:
physchem = type: physicochemical; conditions: L or D configuration; ultrapure water, DMSO and DPBS
Description: The tests were carried out in three of the most common solvents used in biological applications such as: ultrapure water; DPBS (Dulbecco's Phosphate Buffered Saline), i.e., a saline buffer containing potassium chloride (KCl), monobasic potassium phosphate (KH2PO4), sodium chloride (NaCl) and dibasic sodium phosphate (Na2HPO4-7H2O) and finally in an organic solvent such as dimethylsulfoxide (DMSO).

[1] = type: physicochemical; conditions: Tris HCL pH 7, 3 mM SDS
Description: 0.1 g/L of RiLK1 peptide was dissolved in 10 mM Tris HCL at pH 7 and 3 mM SDS. The prepared samples were incubated for 24 hours at 4° C. or 25° C. and analysed at time zero and after 24 hours.

[2] = type: physicochemical; set-up: α-helix (Bestsel) / β-sheet (Bestsel) / Random (Bestsel): unit not given here; conditions: 3 mM SDS; for Random (CONTIN-LL) / α-helix (CONTIN-LL) / β-sheet (CONTIN-LL): after a 24-hour incubation
Description: 0.1 g/L of RiLK1 peptide was dissolved in 10 mM concentration solutions at different pHs, in particular: glycine-HCL buffer (pH 2); sodium acetate buffer (pH 4); tris-HCL buffer (pH 7); glycine-NaOH buffer (pH 9). After a 1-hour incubation at 25° C., samples of each solution containing 3 mM SDS were prepared.

E. coli [3] = type: cell-based, Escherichia coli
Description: The evaluation of the Minimum Bactericidal Concentration (MBC), i.e., the lowest concentration of antimicrobial agent capable of 99.9% inhibition of bacterial growth on plates, was carried out as described in Bílikova et al, (2015, Peptides 68:190-196). […] It should be noted that the peptide object of the present invention is more powerful and efficient than the peptide IDR-1018-K6 (described in patent application WO2019012158) against the pathogenic bacteria L. monocytogenes and S. typhimurium, with bactericidal concentration values 4-fold and 7-fold lower, respectively, compared to those shown by IDR-1018-K6.

[4] = test system: Candida albicans (ATCC 14053); assay: activity against yeast, plate count, MFC; type: cell-based; conditions: C. albicans; 25 μM, 6 h
Description: The inhibitory activity of the RiLK1 peptide was determined against the yeast Candida albicans. A stock culture was prepared in which 10^5 CFUs of C. albicans were inoculated in 10 ml of buffered peptone water. A reference strain (ATCC 14053) was used for this species. The culture was incubated for 6 h at 37° C. with the RiLK1 peptide at 25 μM concentrations. At the same time, control samples were incubated without adding the peptide. 100 μl of the samples thus prepared were seeded on DG18 plates (Dichloran 18% Glycerol Agar-ISO 21527-2) and incubated at 25° C. for 7 days. All experimental conditions investigated used the plate count method to estimate the antimycotic activity of the peptide. Specifically, the numbers of colonies grown on agar plates seeded with the cultures in the absence or presence of the individual peptide dilutions were counted and compared. The standard deviations of the triplicate incubations of each plate were determined using statistical software. The evaluation of the Minimum Fungicidal Concentration (MFC), i.e., the lowest concentration of antifungal agent capable of 99.9% inhibition of fungal growth on plates, was carried out as described in Bílikova et al, (2015, Peptides 68:190-196).

E. coli [5] = assay: bactericidal activity at 15 μM, CFU versus control; type: cell-based
Description: (§1) The bactericidal activity of further AMP peptides according to the invention, in particular of the RiLK31 peptide (RLRWVKIWKK, SEQ ID NO:31) and the RiLK3 peptide (RLRWVRIWRR, SEQ ID NO:3), was tested. The bactericidal activity was expressed as a percentage of viable cells in terms of CFU (Colony Forming Units) in a bacterial sample exposed to each peptide compared to those in a control bacterial sample in the absence of the peptide. All tests were carried out with the same peptide concentration, corresponding to 15 μM.

Listeria = assay: bactericidal activity at 15 μM, CFU versus control; type: cell-based
Description: as §1

RLKWVRIWRR-NH2 [RiLK1, RLKWVRIWRR]
maximum concentration completely dissolved (physchem): ≤ 10 mg/mL
Random (Bestsel) ([1]; 4° C., t = 24 hours): 47.5%
Random (DichroWeb CONTIN-LL) ([1]; 4° C., t = 24 hours): 38%
α-helix (Bestsel) ([1]; 4° C., t = 24 hours): 6.5%
α-helix (DichroWeb CONTIN-LL) ([1]; 4° C., t = 24 hours): 25%
β-sheet (Bestsel) ([1]; 4° C., t = 24 hours): 46%
β-sheet (DichroWeb CONTIN-LL) ([1]; 4° C., t = 24 hours): 37%
Random (Bestsel) ([1]; 25° C., t = 24 hours): 43.6%
Random (DichroWeb CONTIN-LL) ([1]; 25° C., t = 24 hours): 37%
α-helix (Bestsel) ([1]; 25° C., t = 24 hours): 6.8%
α-helix (DichroWeb CONTIN-LL) ([1]; 25° C., t = 24 hours): 24%
β-sheet (Bestsel) ([1]; 25° C., t = 24 hours): 49.7%
β-sheet (DichroWeb CONTIN-LL) ([1]; 25° C., t = 24 hours): 39%
Random (Bestsel) ([1]; t = 0): 44.9%
Random (DichroWeb CONTIN-LL) ([1]; t = 0): 36%
α-helix (Bestsel) ([1]; t = 0): 17.9%
α-helix (DichroWeb CONTIN-LL) ([1]; t = 0): 21%
β-sheet (Bestsel) ([1]; t = 0): 37.1%
β-sheet (DichroWeb CONTIN-LL) ([1]; t = 0): 43%
Random (Bestsel) ([2]; pH 2, t = 0): 44.4
Random (DichroWeb CONTIN-LL) ([2]; pH 2, t = 0): 39%
α-helix (Bestsel) ([2]; pH 2, t = 0): 18.5
α-helix (DichroWeb CONTIN-LL) ([2]; pH 2, t = 0): 22%
β-sheet (Bestsel) ([2]; pH 2, t = 0): 37
β-sheet (DichroWeb CONTIN-LL) ([2]; pH 2, t = 0): 39%
Random (Bestsel) ([2]; pH 2, t = 24 hours): 44.3
Random (DichroWeb CONTIN-LL) ([2]; pH 2, t = 24 hours): 39%
α-helix (Bestsel) ([2]; pH 2, t = 24 hours): 13.2
α-helix (DichroWeb CONTIN-LL) ([2]; pH 2, t = 24 hours): 17%
β-sheet (Bestsel) ([2]; pH 2, t = 24 hours): 42.5
β-sheet (DichroWeb CONTIN-LL) ([2]; pH 2, t = 24 hours): 44%
Random (Bestsel) ([2]; pH 4, t = 0): 52.4
Random (DichroWeb CONTIN-LL) ([2]; pH 4, t = 0): 36%
α-helix (Bestsel) ([2]; pH 4, t = 0): 7.7
α-helix (DichroWeb CONTIN-LL) ([2]; pH 4, t = 0): 23%
β-sheet (Bestsel) ([2]; pH 4, t = 0): 39.8
β-sheet (DichroWeb CONTIN-LL) ([2]; pH 4, t = 0): 41%
Random (Bestsel) ([2]; pH 4, t = 24 hours): 41.2
Random (DichroWeb CONTIN-LL) ([2]; pH 4, t = 24 hours): 35%
α-helix (Bestsel) ([2]; pH 4, t = 24 hours): 13.3
α-helix (DichroWeb CONTIN-LL) ([2]; pH 4, t = 24 hours): 24%
β-sheet (Bestsel) ([2]; pH 4, t = 24 hours): 45.5
β-sheet (DichroWeb CONTIN-LL) ([2]; pH 4, t = 24 hours): 41%
Random (Bestsel) ([2]; pH 7, t = 0): 45.4
Random (DichroWeb CONTIN-LL) ([2]; pH 7, t = 0): 36%
α-helix (Bestsel) ([2]; pH 7, t = 0): 15
α-helix (DichroWeb CONTIN-LL) ([2]; pH 7, t = 0): 25%
β-sheet (Bestsel) ([2]; pH 7, t = 0): 39.5
β-sheet (DichroWeb CONTIN-LL) ([2]; pH 7, t = 0): 39%
Random (Bestsel) ([2]; pH 7, t = 24 hours): 40.8
Random (DichroWeb CONTIN-LL) ([2]; pH 7, t = 24 hours): 37%
α-helix (Bestsel) ([2]; pH 7, t = 24 hours): 15.5
α-helix (DichroWeb CONTIN-LL) ([2]; pH 7, t = 24 hours): 19%
β-sheet (Bestsel) ([2]; pH 7, t = 24 hours): 43.8
β-sheet (DichroWeb CONTIN-LL) ([2]; pH 7, t = 24 hours): 44%
Random (Bestsel) ([2]; pH 9, t = 0): 44.4
Random (DichroWeb CONTIN-LL) ([2]; pH 9, t = 0): 39%
α-helix (Bestsel) ([2]; pH 9, t = 0): 13.7
α-helix (DichroWeb CONTIN-LL) ([2]; pH 9, t = 0): 19%
β-sheet (Bestsel) ([2]; pH 9, t = 0): 42
β-sheet (DichroWeb CONTIN-LL) ([2]; pH 9, t = 0): 42%
Random (Bestsel) ([2]; pH 9, t = 24 hours): 42.9
Random (DichroWeb CONTIN-LL) ([2]; pH 9, t = 24 hours): 24%
α-helix (Bestsel) ([2]; pH 9, t = 24 hours): 13.4
α-helix (DichroWeb CONTIN-LL) ([2]; pH 9, t = 24 hours): 29%
β-sheet (Bestsel) ([2]; pH 9, t = 24 hours): 43.8
β-sheet (DichroWeb CONTIN-LL) ([2]; pH 9, t = 24 hours): 47%
Random (CONTIN-LL) ([2]; Table 8: pH 2): 39%
α-helix (CONTIN-LL) ([2]; Table 8: pH 2): 22%
β-sheet (CONTIN-LL) ([2]; Table 8: pH 2): 39%
Random (CONTIN-LL) ([2]; Table 8: pH 4): 36%
α-helix (CONTIN-LL) ([2]; Table 8: pH 4): 23%
β-sheet (CONTIN-LL) ([2]; Table 8: pH 4): 41%
Random (CONTIN-LL) ([2]; Table 8: pH 7): 36%
α-helix (CONTIN-LL) ([2]; Table 8: pH 7): 25%
β-sheet (CONTIN-LL) ([2]; Table 8: pH 7): 39%
Random (CONTIN-LL) ([2]; Table 8: pH 9): 39%
α-helix (CONTIN-LL) ([2]; Table 8: pH 9): 19%
β-sheet (CONTIN-LL) ([2]; Table 8: pH 9): 42%
MBC (E. coli [3]): 2 µM
Drop Log CFU/ml [4]: 5 Log CFU/ml
post-treatment decrease in the fungal load [4]: 5 Log
bactericidal activity (E. coli [5]): 100%
bactericidal activity (Listeria): 99.5%
